# Data: publication PMC7664637, “In Vitro and In Silico Evaluation of Anticancer Activity of New Indole-Based 1,3,4-Oxadiazoles as EGFR and COX-2 Inhibitors” (Molecules, 2020)
# Assays:
# [1] = test system: A549 human lung adenocarcinoma cell line; assay: MTT cytotoxicity assay, A549; conditions: A549, 48 h, read-out: IC50 A549 Cell Line
# Method: (§2) At the end of this period, supernatants were removed, and 100 μL DMSO was added to each well to solubilize the formazan crystals. The absorbance of the solution was determined on an Infinite M1000 plate reader (Tecan, Mannedorf, Switzerland) at a wavelength of 550 nm with background subtraction at 630 nm.
# [2] = test system: HCT116 human colorectal carcinoma cell line; assay: MTT cytotoxicity assay, HCT116; conditions: HCT-116, 48 h, read-out: IC50 HCT-116 Cell Line
# Method: as §2
# [3] = test system: Jurkat human leukemic T-cells; assay: MTT cytotoxicity assay, Jurkat cells (tumor selectivity); conditions: 48 h, read-out: IC50 Jurkat Cells
# Method: as §2
# [4] = test system: A375 human melanoma cell line; assay: MTT cytotoxicity assay, A375; conditions: A-375, 48 h, read-out: IC50 A375 Cell Line
# Method: as §2
# [5] = test system: peripheral blood mononuclear cells (PBMCs); assay: MTT cytotoxicity assay, PBMCs (tumor selectivity); conditions: Homo sapiens, PBMC, 48 h, read-out: IC50 PBMCs
# Method: as §2
# PDGFRβ = biological target: T1, PDGFRβ (Homo sapiens, UniProt P09619); assay: Kinase profiling assay (ADP-Glo), PDGFRβ; type: biochemical; conditions: 1 h, room temperature
# T1 construct: purchased Promega Corporation
# Method: (§1) The kinase profiling assay protocol was applied according to the manufacturer’s instructions (Promega Corporation, Madison, WI, USA) with modification. […] Then, the reaction of the kinase was performed using 2 µL of compound solution at varying concentrations (0.1–100 µM), 4 µL of kinase working stock, and 4 µL of ATP/substrate working stock in the 384-well plate. After 1 h of incubation at room temperature, the activity of kinase was detected using ADP-Glo kinase assay (Promega Corporation, Madison, WI, USA), and kinase inhibitory activity of compounds in dose–response mode was measured by an Infinite M1000 luminescence plate reader (Tecan, Groding, Austria).
# HER2 = biological target: T2, HER2 (Homo sapiens, UniProt P04626); assay: Kinase profiling assay (ADP-Glo), HER2; type: biochemical; conditions: 1 h, room temperature
# T2 construct: purchased Promega Corporation
# Method: as §1
# HCT116 cells = assay: Detection of cell death, Hoechst 33342/annexin V/ethidium homodimer III staining; type: cell-based, human; conditions: 10 μM, 12 h
# Method: The cells were then briefly washed twice with 1× binding buffer, a staining solution containing 50 μL of 1× binding buffer, 5 μL of FITC-Annexin V solution, 5 μL of ethidium homodimer III solution, and 5 μL of Hoechst 33342 solution and incubated for 15 min at room temperature in the dark. Then, cells were washed with 1× binding buffer and analyzed by a Biorevo Fluorescence BZ-9000 all-in-one fluorescence microscope (Keyence, Osaka, Japan). Numbers of healthy cells (Hoechst 33342), apoptotic cells (Annexin V), late apoptotic or necrotic cells (Annexin V and Ethidium homodimer III), and necrotic cells (Ethidium homodimer III) were counted, as previously described.
# (B) A total of approximately 100 stained cells were selected randomly in each experiment of (A) and were classified into 4 types: “alive” (blue), “apoptosis” (green), “necrosis or late apoptosis” (both green and red), and “necrosis” (red). […] Data from three independent experiments are shown as means ± standard deviations and p values were determined using Student’s test.
# InsR = biological target: T3, InsR (Homo sapiens, UniProt P06213); assay: Kinase profiling assay (ADP-Glo), InsR; type: biochemical; conditions: 1 h, room temperature
# T3 construct: purchased Promega Corporation
# Method: as §1
# COX-1 = biological target: T4, COX-1 (Ovis aries, UniProt P05979); assay: In vitro COX inhibition assay (COX (ovine/human) inhibitor screening kit), COX-1
# T4 sequence (P05979 25-600): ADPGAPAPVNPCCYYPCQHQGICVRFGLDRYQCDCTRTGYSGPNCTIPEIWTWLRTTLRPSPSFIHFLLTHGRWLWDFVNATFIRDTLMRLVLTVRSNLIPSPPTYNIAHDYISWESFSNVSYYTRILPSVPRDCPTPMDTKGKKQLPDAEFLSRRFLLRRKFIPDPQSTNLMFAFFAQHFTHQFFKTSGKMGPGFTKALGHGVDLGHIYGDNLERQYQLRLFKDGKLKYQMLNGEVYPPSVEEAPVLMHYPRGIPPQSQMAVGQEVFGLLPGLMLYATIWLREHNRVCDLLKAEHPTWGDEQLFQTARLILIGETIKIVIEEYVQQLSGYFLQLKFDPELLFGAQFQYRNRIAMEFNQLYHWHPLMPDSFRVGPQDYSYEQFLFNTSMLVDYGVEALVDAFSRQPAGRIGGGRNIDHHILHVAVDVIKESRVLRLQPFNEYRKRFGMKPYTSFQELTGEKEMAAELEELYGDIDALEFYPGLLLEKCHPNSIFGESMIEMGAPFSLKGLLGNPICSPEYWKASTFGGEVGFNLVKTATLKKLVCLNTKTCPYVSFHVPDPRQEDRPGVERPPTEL
# Method: Briefly, COX reactions were performed. […] The prostaglandins were quantified by ELISA.
# IGF1R = biological target: T5, IGF1R (Homo sapiens, UniProt P08069); assay: Kinase profiling assay (ADP-Glo), IGF1R; type: biochemical; conditions: 1 h, room temperature
# T5 construct: purchased Promega Corporation
# Method: as §1
# EGFR = biological target: T6, EGFR (Homo sapiens, UniProt P00533); assay: Kinase profiling assay (ADP-Glo), EGFR; type: biochemical; conditions: 1 h, room temperature
# T6 construct: purchased Promega Corporation
# Method: as §1
# PDGFRα = biological target: T7, PDGFRα (Homo sapiens, UniProt P16234); assay: Kinase profiling assay (ADP-Glo), PDGFRα; type: biochemical; conditions: 1 h, room temperature
# T7 construct: purchased Promega Corporation
# Method: as §1
# KDR = biological target: T8, KDR (Homo sapiens, UniProt P35968); assay: Kinase profiling assay (ADP-Glo), KDR; type: biochemical; conditions: 1 h, room temperature
# T8 construct: purchased Promega Corporation
# Method: as §1
# HER4 = biological target: T9, HER4 (Homo sapiens, UniProt Q15303); assay: Kinase profiling assay (ADP-Glo), HER4; type: biochemical; conditions: 1 h, room temperature
# T9 construct: purchased Promega Corporation
# Method: as §1
# T7 sequence (P16234 24-1089): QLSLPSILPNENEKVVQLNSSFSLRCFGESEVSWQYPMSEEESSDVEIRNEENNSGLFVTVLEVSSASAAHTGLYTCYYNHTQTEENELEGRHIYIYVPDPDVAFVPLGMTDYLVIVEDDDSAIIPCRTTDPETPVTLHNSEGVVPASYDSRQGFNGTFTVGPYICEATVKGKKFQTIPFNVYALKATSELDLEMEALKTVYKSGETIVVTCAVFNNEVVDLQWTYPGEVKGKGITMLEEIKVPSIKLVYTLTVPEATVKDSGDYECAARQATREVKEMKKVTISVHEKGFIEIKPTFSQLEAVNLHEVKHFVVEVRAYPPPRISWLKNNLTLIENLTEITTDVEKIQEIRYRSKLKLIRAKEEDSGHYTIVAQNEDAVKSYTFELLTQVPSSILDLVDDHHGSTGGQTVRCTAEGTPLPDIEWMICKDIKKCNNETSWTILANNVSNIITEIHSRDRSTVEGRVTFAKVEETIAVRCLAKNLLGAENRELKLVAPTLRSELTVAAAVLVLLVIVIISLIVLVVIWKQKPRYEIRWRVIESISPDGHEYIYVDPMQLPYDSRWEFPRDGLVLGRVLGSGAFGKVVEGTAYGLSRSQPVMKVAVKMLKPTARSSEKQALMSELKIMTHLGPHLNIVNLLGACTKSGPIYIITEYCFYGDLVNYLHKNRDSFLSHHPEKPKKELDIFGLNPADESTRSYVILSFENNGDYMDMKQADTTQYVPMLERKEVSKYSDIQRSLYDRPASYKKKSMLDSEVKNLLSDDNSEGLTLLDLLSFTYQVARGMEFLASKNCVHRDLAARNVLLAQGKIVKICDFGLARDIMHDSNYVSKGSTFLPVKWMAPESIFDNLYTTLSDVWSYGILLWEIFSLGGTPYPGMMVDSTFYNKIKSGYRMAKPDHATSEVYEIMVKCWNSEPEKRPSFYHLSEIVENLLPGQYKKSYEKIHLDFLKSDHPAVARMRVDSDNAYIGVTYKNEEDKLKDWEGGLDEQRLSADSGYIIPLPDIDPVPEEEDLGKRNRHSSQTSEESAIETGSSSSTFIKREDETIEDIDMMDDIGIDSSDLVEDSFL
# T1 sequence (P09619 33-1106): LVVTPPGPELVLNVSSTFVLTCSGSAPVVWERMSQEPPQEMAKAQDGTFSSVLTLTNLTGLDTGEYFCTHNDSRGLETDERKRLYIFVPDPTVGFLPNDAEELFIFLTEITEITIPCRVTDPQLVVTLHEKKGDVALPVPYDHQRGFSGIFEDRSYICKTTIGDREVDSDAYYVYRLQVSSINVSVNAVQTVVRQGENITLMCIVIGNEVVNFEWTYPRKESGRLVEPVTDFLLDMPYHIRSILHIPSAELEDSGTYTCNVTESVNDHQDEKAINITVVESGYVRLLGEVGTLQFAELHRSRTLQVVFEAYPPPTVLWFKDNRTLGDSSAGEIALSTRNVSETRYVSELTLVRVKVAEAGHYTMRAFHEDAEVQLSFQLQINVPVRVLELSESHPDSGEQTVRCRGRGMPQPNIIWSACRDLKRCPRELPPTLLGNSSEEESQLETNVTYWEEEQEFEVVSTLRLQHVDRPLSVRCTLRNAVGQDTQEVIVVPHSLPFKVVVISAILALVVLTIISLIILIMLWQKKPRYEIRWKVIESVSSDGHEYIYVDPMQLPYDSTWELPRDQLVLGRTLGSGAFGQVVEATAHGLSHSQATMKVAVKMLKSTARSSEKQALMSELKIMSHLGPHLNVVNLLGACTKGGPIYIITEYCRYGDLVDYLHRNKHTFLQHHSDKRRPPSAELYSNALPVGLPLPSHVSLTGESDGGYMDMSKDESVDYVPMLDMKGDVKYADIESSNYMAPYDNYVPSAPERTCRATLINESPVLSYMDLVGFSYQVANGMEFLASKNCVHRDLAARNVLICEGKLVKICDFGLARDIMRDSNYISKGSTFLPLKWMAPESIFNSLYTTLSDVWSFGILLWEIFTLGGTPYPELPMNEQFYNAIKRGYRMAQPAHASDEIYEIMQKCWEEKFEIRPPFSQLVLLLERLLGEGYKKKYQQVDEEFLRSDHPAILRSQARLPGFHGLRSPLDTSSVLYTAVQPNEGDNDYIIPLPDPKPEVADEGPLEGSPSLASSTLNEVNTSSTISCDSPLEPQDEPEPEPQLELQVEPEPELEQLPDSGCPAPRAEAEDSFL
# T3 sequence (P06213 28-1382): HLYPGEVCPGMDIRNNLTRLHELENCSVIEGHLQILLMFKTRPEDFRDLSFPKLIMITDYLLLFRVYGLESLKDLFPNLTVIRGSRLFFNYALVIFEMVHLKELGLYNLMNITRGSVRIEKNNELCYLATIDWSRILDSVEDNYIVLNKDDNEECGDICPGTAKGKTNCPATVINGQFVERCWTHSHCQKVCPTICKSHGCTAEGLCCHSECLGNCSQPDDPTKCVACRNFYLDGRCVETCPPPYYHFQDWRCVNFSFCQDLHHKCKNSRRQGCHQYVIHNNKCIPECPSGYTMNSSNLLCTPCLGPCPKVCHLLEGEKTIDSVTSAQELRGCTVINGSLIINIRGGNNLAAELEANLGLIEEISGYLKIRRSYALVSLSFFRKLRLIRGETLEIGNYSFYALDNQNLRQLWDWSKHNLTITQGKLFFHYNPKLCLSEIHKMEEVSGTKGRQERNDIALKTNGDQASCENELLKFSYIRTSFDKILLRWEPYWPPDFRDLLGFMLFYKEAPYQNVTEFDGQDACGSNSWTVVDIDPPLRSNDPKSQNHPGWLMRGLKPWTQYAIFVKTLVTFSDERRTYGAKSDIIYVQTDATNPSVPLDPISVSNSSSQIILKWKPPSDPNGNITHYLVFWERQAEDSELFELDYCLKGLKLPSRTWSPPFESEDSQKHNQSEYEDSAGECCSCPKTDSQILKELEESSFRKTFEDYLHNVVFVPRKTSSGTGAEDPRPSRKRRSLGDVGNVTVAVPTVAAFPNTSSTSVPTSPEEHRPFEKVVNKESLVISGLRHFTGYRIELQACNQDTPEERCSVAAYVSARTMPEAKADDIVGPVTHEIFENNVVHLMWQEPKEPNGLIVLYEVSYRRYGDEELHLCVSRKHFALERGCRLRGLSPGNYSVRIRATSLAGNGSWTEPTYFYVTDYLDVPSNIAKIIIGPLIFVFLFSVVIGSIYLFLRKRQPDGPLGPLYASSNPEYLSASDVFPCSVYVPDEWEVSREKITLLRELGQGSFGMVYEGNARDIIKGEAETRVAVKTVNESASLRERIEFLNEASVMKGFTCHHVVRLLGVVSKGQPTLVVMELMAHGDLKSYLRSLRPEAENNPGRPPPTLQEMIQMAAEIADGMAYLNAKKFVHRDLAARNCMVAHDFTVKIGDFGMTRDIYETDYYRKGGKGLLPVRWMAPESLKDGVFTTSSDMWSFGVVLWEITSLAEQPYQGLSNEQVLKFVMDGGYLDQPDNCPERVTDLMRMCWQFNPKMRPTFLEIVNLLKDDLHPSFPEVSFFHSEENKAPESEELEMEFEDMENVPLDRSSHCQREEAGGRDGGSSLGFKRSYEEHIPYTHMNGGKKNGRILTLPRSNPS
# T8 sequence (P35968 20-1356): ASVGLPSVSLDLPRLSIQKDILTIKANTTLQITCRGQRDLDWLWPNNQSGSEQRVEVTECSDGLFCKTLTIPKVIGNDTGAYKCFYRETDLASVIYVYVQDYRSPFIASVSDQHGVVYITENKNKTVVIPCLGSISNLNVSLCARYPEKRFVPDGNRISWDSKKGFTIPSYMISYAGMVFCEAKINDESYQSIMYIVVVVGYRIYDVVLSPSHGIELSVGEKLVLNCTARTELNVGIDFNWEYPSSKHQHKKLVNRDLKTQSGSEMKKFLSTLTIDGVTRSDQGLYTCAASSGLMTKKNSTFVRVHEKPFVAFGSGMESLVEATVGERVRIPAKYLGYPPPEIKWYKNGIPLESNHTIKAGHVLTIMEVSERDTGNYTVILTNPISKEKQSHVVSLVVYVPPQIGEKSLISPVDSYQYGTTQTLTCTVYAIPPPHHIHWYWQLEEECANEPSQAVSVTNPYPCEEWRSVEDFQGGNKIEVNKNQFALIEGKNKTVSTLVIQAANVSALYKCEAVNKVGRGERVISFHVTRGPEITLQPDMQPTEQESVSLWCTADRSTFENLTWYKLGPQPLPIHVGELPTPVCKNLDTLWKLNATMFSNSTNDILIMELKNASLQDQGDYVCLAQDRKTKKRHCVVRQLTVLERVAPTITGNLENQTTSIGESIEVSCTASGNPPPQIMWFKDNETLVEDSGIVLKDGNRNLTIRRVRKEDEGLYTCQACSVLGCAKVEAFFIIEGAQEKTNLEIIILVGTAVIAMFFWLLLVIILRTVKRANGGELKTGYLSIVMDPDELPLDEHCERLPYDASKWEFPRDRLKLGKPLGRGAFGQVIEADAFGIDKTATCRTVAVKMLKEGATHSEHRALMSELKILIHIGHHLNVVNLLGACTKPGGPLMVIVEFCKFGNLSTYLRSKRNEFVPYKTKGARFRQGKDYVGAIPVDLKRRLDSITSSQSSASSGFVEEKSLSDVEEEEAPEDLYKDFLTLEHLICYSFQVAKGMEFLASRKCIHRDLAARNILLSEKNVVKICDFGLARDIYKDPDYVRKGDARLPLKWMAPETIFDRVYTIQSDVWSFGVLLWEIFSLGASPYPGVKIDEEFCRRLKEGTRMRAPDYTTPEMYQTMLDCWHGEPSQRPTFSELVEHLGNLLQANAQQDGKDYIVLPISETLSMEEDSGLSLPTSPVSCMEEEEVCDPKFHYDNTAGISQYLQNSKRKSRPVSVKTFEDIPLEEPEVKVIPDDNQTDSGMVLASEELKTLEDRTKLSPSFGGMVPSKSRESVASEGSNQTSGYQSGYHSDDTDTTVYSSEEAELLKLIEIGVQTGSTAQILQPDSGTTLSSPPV
melting point [°C],SMILES,IC50 [1] [µM],IC50 [2] [µM],IC50 [3] [µM],IC50 [4] [µM],IC50 [5] [µM],further results
177.4 to 178.2,"O=C(CSc1nnc(Cc2c[nH]c3ccccc23)o1)Nc1nccs1 [Compound 2g, 2-[(5-((1H-Indol-3-yl)methyl)-1,3,4-oxadiazol-2-yl)thio]-N-(thiazol-2-yl)acetamide]",> 100,> 100,–,> 100,–,–
158 to 158.6,"CCOC(=O)Cc1csc(NC(=O)CSc2nnc(Cc3c[nH]c4ccccc34)o2)n1 [Compound 2i, 2-[(5-((1H-Indol-3-yl)methyl)-1,3,4-oxadiazol-2-yl)thio]-N-[4-(ethoxycarbonylmethyl)thiazol-2-yl]acetamide]",71.9 ± 10.3,> 100,–,95.9 ± 12.4,–,–
240.6 to 241.5,"O=C(CSc1nnc(Cc2c[nH]c3ccccc23)o1)Nc1nc2ccc(Br)cc2s1 [Compound 2c, 2-[(5-((1H-Indol-3-yl)methyl)-1,3,4-oxadiazol-2-yl)thio]-N-(6-bromobenzothiazol-2-yl)acetamide]",24.9 ± 1.96,> 100,–,48.5 ± 5.78,–,–
233.9 to 234.5,"O=C(CSc1nnc(Cc2c[nH]c3ccccc23)o1)Nc1ncc([N+](=O)[O-])s1 [Compound 2h, 2-[(5-((1H-Indol-3-yl)methyl)-1,3,4-oxadiazol-2-yl)thio]-N-[5-nitrothiazol-2-yl]acetamide]",> 100,> 100,–,> 100,–,–

# Further lines, the compound ahead of its results:
SMILES,melting point [°C],IC50 [1] [µM],IC50 [2] [µM],IC50 [3] [µM],IC50 [4] [µM],IC50 [5] [µM],further results
"O=C(CSc1nnc(Cc2c[nH]c3ccccc23)o1)Nc1nc2ccccc2s1 [Compound 2a, 2-[(5-((1H-Indol-3-yl)methyl)-1,3,4-oxadiazol-2-yl)thio]-N-(benzothiazol-2-yl)acetamide]",–,40.4 ± 7.74,26.2 ± 1.75,17.7 ± 3.59,65.1 ± 10.1,> 300,–
"CCOc1ccc2nc(NC(=O)CSc3nnc(Cc4c[nH]c5ccccc45)o3)sc2c1 [Compound 2e, 2-[(5-((1H-Indol-3-yl)methyl)-1,3,4-oxadiazol-2-yl)thio]-N-(6-ethoxybenzothiazol-2-yl)acetamide]",–,9.62 ± 1.14,6.43 ± 0.72,6.45 ± 1.02,–,> 300,IC50 (PDGFRβ): 6.16 ± 1.58 µM; IC50 (HER2): > 30 µM; apoptosis (apoptotic cells) (HCT116 cells): 28.35%; late apoptotic or necrotic effects (HCT116 cells): 9.81%; IC50 (InsR): 29.1 ± 4.66 µM; IC50 (COX-1): 73.5 ± 2.12 µM; IC50 (IGF1R): > 30 µM; IC50 (EGFR): 2.8 ± 0.52 µM; IC50 (PDGFRα): > 30 µM; IC50 (KDR): > 30 µM; IC50 (HER4): 8.22 ± 1.64 µM
"Cc1ccc2nc(NC(=O)CSc3nnc(Cc4c[nH]c5ccccc45)o3)sc2c1 [Compound 2d, 2-[(5-((1H-Indol-3-yl)methyl)-1,3,4-oxadiazol-2-yl)thio]-N-(6-methylbenzothiazol-2-yl)acetamide]",–,36.9 ± 5.43,18.2 ± 1.19,21.1 ± 1.85,30.2 ± 3.12,> 300,–
"O=C(CSc1nnc(Cc2c[nH]c3ccccc23)o1)Nc1nc2ccc(Cl)cc2s1 [Compound 2b, 2-[(5-((1H-Indol-3-yl)methyl)-1,3,4-oxadiazol-2-yl)thio]-N-(6-chlorobenzothiazol-2-yl)acetamide]",–,60.7 ± 9.48,> 100,–,37.6 ± 5.62,–,–
"C#Cc1cccc(Nc2ncnc3cc(OCCOC)c(OCCOC)cc23)c1 [Erlotinib, reference compound]",–,19.4 ± 2.38,–,9.47 ± 2.15,23.8 ± 4.17,45.7 ± 8.88,apoptosis (apoptotic cells) (HCT116 cells): 7.42%; late apoptotic or necrotic effects (HCT116 cells): 10.45%
"O=C(CSc1nnc(Cc2c[nH]c3ccccc23)o1)Nc1nc2ccc([N+](=O)[O-])cc2s1 [Compound 2f, 2-[(5-((1H-Indol-3-yl)methyl)-1,3,4-oxadiazol-2-yl)thio]-N-(6-nitrobenzothiazol-2-yl)acetamide]",–,> 100,> 100,–,> 100,–,–
